Assay results taken from US6166290A, “Glutathione-S-conjugate transport in plants” (The Trustees of the University of Pennsylvania, priority 1997, dated 2000).
Values joined by “and” are separate entries in the source; they are usually repeats but may differ in a detail not shown here. Equal values may be shown once. Values belong to the compound of their own block, whether it stands above or below them.

Assays:
AtMRP2 = target: T1, AtMRP2 (Arabidopsis thaliana, UniProt Q42093); assay: AtMRP2-dependent uptake by membrane vesicles from pYES3-AtMRP2-transformed DTY168 cells; type: biochemical
T1 construct: S. cerevisiae DTY168 (ycf1 null) vacuolar-enriched membrane vesicles
Procedure: (§1) Cells were grown and vacuolar membrane-enriched vesicles were prepared as described (Kim et al., 1995, J Biol. Chem. 270:2630-2635-). […] Uptake was terminated by the addition of 1 ml ice-cold wash medium (400 mM sorbitol/3 mM Tris-Mes, pH 8.0) and vacuum filtration of the suspension through prewetted Millipore HA cellulose nitrate filters (pore size 0.45 μm). The filters were rinsed twice with wash medium, and the retained radioactivity was determined by liquid scintillation counting. Nonenergized uptake was estimated by the same procedure except that ATP was omitted from the uptake medium.
Membranes from DTY168/pYES3-AtMRP2 cells were incubated for 10 minutes in standard uptake medium containing 61.3 μM [^3 H]DNP-GS after which time 200 mM glucose and 50 units/ml hexokinase (Type F-300 from baker's yeast) were added. […] Control samples were treated identically except that no additions were made after the initial 10 minute incubation period.

AtMRP1 = target: T2, AtMRP1 (Arabidopsis thaliana, UniProt Q9C8G9); assay: AtMRP1-dependent uptake by membrane vesicles from pYES3-AtMRP1-transformed DTY168 cells; type: biochemical; set-up: rate of C3G-GS uptake: unit not given here
T2 construct: S. cerevisiae DTY168 (ycf1 null) vacuolar-enriched membrane vesicles
Procedure: S. cerevisiae strain DTY168 (MATα his6, leu2-3, -112, ura3-52 ycf1::hisG) was transformed with pYES3-AtMRP1 or empty vector lacking the AtMRP1 insert (pYES3) by the LiOAc/PEG method (Giest et al., 1991, Yeast 7:253-263) and selected for uracil prototrophy by plating on AHC medium containing tryptophan (Kim et al., 1994, supra).
For the preparation of membrane vesicles, 15 ml volumes of stationary phase cultures of the transformants were diluted into 1 L of fresh AHC medium and grown to an OD600 nm of about 1.2. Membrane vesicles were purified as described herein and in Kim et al. (1995, supra).
[…] μl reaction volumes containing 3 mM ATP, 3 mM MgSO4, 5 μM gramicidin-D, 10 mM creatine phosphate, 16 units/ml creatine kinase, 50 mM KCl, 1 mg/ml BSA, 400 mM sorbitol, 25 mM Tris-Mes ([…]).
as §1

[1] = test system: vacuolar membrane vesicles purified from DTY167 cells (ycf1Δ mutant); type: biochemical, Saccharomyces cerevisiae
Procedure: (§2) For the routine preparation of vacuolar membrane vesicles, 15 ml of stationary phase cultures of DTY165 or DTY167 were diluted into 1-liter volumes of fresh YPD medium, grown for 24 hours at 30° C. to an OD600 nm of approximately 0.8 and collected by centrifugation. After washing with distilled water, the cells were converted to spheroplasts with Zymolyase 20T (ICN) (Kim et al., 1994, supra) and intact vacuoles were isolated by flotation centrifugation of spheroplast lysates on Ficoll 400 step gradients as described by Roberts et al. (1991, Methods. Enzymol. 194:644-661). Both the spheroplast lysis buffer and Ficoll gradients contained 2 mg/ml bovine serum albumin, 1 μg/ml aprotinin, 1 μg/ml leupeptin, 1 μg/ml pepstatin, and 1 mM PMSF to minimize proteolysis. The resulting vacuole fraction was vesiculated in 5 mM MgCl2, 25 mM KCl, 10 mM Tris-Mes (pH 6.9) containing 2 mg/ml bovine serum albumin, 1 μg/ml aprotinin, 1 μg/ml leupeptin, 1 μg/ml pepstatin, and 1 mM PMSF, pelleted by centrifugation at 37,000× g for 25 min, and resuspended in suspension medium (1.1 M glycerol, 2 mM dithiothreitol, 1 mM Tris-EGTA, 2 mg/ml bovine serum albumin, 1 μg/ml aprotinin, 1 μg/ml leupeptin, 1 μg/ml pepstatin, 1 mM PMSF, 5 mM Tris-Mes, pH 7.6) (Kim et al., 1995, J. Biol. Chem. 270:2630-2635).
(§3) Unless otherwise indicated, [^3 H]DNP-GS uptake was measured at 25° C. in 200 μl reaction volumes containing 3 mM ATP, 3 mM MgSO4, 5 μM gramicidin-D, 10 mM creatine phosphate, 16 units/ml creatine kinase, 50 mM KC 1, 1 mg/ml bovine serum albumin, 400 mM sorbitol, 25 mM Tris-Mes (pH 8.0), and 66.2 μM [^3 H]DNP-GS (8.7 mCi/mmol) (Li et al., 1995, supra). […] Uptake was initiated by the addition of vacuolar membrane vesicles (10-15 μg of membrane protein), brief mixing of the samples on a vortex mixer and uptake was then allowed to proceed for 1-60 minutes. Uptake was terminated by the addition of 1 ml of ice-cold wash medium (400 mM sorbitol, 3 mM Tris-Mes, pH 8.0) and vacuum filtration of the suspension through prewetted Millipore HA cellulose nitrate membrane filters (pore diameter, 0.45 μm). The filters were rinsed twice with 1 ml of ice-cold wash medium and air-dried, and radioactivity was determined by liquid scintillation counting in BCS mixture (Amersham Corp.). Nonenergized [^3 H]DNP-GS uptake and extravesicular solution trapped on the filters were enumerated by the same procedure except that ATP and Mg^2 +were omitted from the uptake medium.

[2] = test system: vacuolar GS-X pump (vacuolar membrane vesicles, V. radiata hypocotyls); assay: GS-conjugate uptake by vacuolar membrane vesicles from etiolated hypocotyls of V. radiata; type: biochemical, Vigna radiata
Procedure: Values shown are means ±SE (n=3).
Vacuolar membrane vesicles were purified from etiolated hypocotyls of V. radiata cv.
Unless otherwise indicated, [^3 H]medicarpin or [3H]medicarpin-GS uptake was measured at 25° C. in 200 μl reaction volumes containing 3 mM ATP, 3 mM MgSO4, 10 mM creatine phosphate, 16 U/ml creatine kinase, 50 mM KCl, 0.1% (w/v) BSA, 400 mM sorbitol and 25 mM Tris-Mes buffer, pH 8.0. Uptake was initiated by the addition of 12 μl membrane vesicles (30-40 μg protein) and brief mixing of the samples on a vortex mixer. Uptake was terminated by the addition of 1 ml ice-cold wash medium (400 mM sorbitol, 3 mM Tris-Mes, pH 8.0) and vacuum filtration of the suspension through prewetted HA cellulose nitrate filters (pore diameter 0.45 μm). The filters were rinsed twice with a 1 ml ice-cold wash medium, air-dried and radioactivity was determined by liquid scintillation counting.

[3] = test system: vacuolar membrane vesicles purified from DTY167 cells (ycf1Δ mutant); type: biochemical, Saccharomyces cerevisiae; remark: listed apart in the source
Procedure: (§4) In experiments involving cadmium transport, dithiothreitol and EGTA were removed from the suspension medium to prevent the attenuation of YCF1-dependent Cd^2+ transport otherwise exerted by these compounds. Vesiculated vacuolar membranes were subjected to three cycles of 50-fold dilution into simplified suspension medium (1.1 M glycerol, 5 mM Tris-Mes, pH 8.0), centrifugation at 100,000× g for 35 minutes and resuspension in the same medium before use.
(§5) Singly radiolabeled ^109 Cd.GSn and doubly radio-labeled ^109 Cd[^3 H].GS^n complexes were prepared by sequential gel-filtrationand anion-exchange chromatography of the reaction products generated by incubating 20 mM ^109 CdSO4 (78.4 mCi/mmol) with 40 mM GSH or 40 mM [^3 H]GSH (240 mCi/mmol) in 15 ml 10 mM phosphate buffer (pH 8.0) containing 150 mM KNO3 at 45° C. for 24 hours. For gel-filtration, 2 ml aliquots of the reaction mixture were applied to a column (40×1.5 cm ID) packed with water-equilibrated Sephadex G-1 5, eluted with deionized water and ^109 Cd and/or ^3 H in the fractions was measured by liquid scintillation counting. The fractions encompassed by each of the two ^109 Cd.GSn peaks identified were pooled, lyophilized and redissolved in 4 ml of loading buffer (5 mM Tris-Mes, pH 8.0). For anion-exchange chromatography, 0.5 ml aliquots of the resuspended lyophilizates from gel-filtration chromatography were applied to a Mono-Q HR5/5 column (Pharmacia) equilibrated with the same buffer. Elution was with a linear gradient of NaCl (0.5 ml/minute; 0-500 mM) dissolved in loading buffer. The individual fractions corresponding to the major peaks of ^109 Cd obtained from the Mono-Q column (one each for the peaks resolved by gel-filtration chromatography) were pooled, lyophilized and resuspended in 4 ml deionized water after liquid scintillation counting.
(§6) MgATP-energized, uncoupler-insensitive ^109 Cd^2+ uptake by vacuolar membrane vesicles was measured at 25° C. in 200 μl reaction volumes containing 3 mM ATP, 3 mM MgSO4, 5 μM gramicidin-D, 10 mM creatine phosphate, 16 units/ml creatine kinase, 50 mM KCl, 400 mM sorbitol, 25 mM Tris-Mes (pH 8.0) and the indicated concentrations of ^109 CdSO4, GSH or ^109 Cd- and/or ^3 H-labeled purified Cd.GSn complexes as described herein except that the wash media contained 100 μM CdSO4 in addition to sorbitol (400 mM) and Tris-Mes (3 mM, pH 8.0).

[4] = target: T3, YCF1 (vacuolar membrane vesicles purified from DTY165 cells) (Saccharomyces cerevisiae, UniProt P39109); assay: [3H]DNP-GS uptake by vacuolar membrane vesicles purified from DTY165 cells; type: biochemical
T3 construct: endogenous in cells; host or cells: S. cerevisiae DTY165 (wild type YCF1), vacuolar membrane vesicles
Procedure: as §2, §3

[5] = target: T3, YCF1 (vacuolar membrane vesicles purified from DTY165 cells); assay: biochemical; type: biochemical
Procedure: as §4, §5, §6

[6] = test system: vacuolar GS-X pump (vacuolar membrane vesicles, Z. mays roots); assay: GS-conjugate uptake by vacuolar membrane vesicles from roots of Z. mays; type: biochemical, Zea mays
[7] = test system: vacuolar GS-X pump (vacuolar membrane vesicles, V. radiata hypocotyls); details: cited from earlier work
[8] = 66.2 μM DNP-GS, 3 mM MgATP (omitted with MgAMP-PNP), MgAMP-PNP 3 mM, bafilomycin A1 0.5 μM, FCCP 5 μM, gramicidin D 5 μM, NH4Cl 1 mM
[9] = as Table 1 concentrations, 10 min
[10] = gramicidin-D 5 μM, vanadate 10 μM, DNP-GS 100 μM
[11] = 50 μM 109Cd.GS2, bafilomycin A1 0.5 μM, FCCP 5 μM, gramicidin-D 5 μM, NH4Cl 1 mM
[12] = as Table 7 concentrations, 10 min
[13] = MgATP-dependent, uncoupler-insensitive

T3 sequence (P39109 whole entry): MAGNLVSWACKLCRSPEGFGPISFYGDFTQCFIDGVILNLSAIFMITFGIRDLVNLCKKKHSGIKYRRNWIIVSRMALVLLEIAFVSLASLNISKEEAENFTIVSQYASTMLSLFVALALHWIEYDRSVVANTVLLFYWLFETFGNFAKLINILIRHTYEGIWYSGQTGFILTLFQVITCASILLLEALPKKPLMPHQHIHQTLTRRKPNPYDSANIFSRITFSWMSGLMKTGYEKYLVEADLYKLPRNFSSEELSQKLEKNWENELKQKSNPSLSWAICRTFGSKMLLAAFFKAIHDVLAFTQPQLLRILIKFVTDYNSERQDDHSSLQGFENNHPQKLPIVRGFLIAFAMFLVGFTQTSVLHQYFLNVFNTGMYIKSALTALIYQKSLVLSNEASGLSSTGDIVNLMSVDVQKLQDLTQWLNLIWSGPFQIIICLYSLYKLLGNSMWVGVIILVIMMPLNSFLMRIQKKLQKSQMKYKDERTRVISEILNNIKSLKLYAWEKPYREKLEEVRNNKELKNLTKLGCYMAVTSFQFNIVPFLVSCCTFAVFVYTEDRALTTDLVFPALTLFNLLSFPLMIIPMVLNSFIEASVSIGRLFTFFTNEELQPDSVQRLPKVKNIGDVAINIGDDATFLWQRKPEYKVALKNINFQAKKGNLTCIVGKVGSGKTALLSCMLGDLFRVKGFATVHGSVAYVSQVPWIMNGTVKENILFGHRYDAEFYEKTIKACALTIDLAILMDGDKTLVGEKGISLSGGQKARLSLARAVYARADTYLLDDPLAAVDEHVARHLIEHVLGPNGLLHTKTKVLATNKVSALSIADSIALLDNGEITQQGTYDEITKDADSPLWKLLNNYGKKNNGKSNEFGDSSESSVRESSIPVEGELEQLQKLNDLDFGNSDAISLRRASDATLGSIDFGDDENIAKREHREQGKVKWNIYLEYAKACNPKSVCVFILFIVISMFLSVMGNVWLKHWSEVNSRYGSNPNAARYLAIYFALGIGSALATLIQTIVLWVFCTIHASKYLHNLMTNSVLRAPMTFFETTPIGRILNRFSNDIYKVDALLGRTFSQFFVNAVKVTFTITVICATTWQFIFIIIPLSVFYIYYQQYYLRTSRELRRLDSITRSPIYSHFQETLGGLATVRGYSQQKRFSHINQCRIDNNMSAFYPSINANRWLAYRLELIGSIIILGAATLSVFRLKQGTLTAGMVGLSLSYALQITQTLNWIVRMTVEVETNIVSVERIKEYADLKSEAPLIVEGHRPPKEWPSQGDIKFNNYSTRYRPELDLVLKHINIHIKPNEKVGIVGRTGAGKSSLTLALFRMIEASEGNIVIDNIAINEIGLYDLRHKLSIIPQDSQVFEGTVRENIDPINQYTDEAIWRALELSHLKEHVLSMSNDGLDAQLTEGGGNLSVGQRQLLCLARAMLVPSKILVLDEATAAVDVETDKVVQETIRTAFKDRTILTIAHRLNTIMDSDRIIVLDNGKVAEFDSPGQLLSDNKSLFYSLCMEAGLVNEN
T1 sequence (Q42093 whole entry): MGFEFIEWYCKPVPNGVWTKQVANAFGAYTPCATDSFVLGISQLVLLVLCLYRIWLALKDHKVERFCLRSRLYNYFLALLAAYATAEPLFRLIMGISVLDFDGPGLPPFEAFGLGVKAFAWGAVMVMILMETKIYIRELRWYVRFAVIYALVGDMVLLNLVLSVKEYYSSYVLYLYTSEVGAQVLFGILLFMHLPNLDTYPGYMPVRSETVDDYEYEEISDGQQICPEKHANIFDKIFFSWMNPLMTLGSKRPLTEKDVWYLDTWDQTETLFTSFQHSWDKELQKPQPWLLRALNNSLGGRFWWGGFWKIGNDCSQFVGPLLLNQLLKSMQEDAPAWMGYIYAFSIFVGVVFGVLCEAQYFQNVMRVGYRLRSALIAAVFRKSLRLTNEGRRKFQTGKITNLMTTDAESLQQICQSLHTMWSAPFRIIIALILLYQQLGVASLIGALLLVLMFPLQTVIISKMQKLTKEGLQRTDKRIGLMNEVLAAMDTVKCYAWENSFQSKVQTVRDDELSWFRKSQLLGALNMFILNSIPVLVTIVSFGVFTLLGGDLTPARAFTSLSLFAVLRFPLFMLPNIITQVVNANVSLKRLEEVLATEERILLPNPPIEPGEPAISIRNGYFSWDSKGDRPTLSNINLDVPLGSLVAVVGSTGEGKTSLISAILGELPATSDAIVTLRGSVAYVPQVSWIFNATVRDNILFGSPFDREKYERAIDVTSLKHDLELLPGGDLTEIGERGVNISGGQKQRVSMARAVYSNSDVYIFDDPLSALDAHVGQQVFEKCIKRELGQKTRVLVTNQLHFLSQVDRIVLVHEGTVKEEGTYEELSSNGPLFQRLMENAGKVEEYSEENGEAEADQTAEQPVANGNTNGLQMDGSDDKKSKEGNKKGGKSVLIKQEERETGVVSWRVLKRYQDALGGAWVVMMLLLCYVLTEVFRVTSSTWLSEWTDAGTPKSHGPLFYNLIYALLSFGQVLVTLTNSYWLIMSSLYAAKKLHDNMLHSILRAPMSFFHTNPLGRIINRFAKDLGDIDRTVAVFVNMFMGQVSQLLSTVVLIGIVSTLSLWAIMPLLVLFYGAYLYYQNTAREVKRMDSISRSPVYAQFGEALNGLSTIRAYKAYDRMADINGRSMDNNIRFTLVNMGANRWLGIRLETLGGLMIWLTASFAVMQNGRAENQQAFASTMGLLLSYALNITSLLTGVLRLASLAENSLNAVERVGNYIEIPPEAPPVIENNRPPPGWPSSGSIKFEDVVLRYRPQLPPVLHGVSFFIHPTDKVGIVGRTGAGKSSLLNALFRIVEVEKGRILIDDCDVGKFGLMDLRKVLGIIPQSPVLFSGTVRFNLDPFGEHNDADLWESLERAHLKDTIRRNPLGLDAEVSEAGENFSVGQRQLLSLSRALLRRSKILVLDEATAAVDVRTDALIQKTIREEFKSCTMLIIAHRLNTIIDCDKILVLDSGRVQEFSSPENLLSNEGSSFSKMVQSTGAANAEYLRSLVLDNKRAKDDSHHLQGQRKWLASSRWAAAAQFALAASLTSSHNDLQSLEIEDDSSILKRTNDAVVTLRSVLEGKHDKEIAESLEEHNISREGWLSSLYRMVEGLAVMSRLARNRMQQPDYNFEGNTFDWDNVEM
T2 sequence (Q9C8G9 whole entry): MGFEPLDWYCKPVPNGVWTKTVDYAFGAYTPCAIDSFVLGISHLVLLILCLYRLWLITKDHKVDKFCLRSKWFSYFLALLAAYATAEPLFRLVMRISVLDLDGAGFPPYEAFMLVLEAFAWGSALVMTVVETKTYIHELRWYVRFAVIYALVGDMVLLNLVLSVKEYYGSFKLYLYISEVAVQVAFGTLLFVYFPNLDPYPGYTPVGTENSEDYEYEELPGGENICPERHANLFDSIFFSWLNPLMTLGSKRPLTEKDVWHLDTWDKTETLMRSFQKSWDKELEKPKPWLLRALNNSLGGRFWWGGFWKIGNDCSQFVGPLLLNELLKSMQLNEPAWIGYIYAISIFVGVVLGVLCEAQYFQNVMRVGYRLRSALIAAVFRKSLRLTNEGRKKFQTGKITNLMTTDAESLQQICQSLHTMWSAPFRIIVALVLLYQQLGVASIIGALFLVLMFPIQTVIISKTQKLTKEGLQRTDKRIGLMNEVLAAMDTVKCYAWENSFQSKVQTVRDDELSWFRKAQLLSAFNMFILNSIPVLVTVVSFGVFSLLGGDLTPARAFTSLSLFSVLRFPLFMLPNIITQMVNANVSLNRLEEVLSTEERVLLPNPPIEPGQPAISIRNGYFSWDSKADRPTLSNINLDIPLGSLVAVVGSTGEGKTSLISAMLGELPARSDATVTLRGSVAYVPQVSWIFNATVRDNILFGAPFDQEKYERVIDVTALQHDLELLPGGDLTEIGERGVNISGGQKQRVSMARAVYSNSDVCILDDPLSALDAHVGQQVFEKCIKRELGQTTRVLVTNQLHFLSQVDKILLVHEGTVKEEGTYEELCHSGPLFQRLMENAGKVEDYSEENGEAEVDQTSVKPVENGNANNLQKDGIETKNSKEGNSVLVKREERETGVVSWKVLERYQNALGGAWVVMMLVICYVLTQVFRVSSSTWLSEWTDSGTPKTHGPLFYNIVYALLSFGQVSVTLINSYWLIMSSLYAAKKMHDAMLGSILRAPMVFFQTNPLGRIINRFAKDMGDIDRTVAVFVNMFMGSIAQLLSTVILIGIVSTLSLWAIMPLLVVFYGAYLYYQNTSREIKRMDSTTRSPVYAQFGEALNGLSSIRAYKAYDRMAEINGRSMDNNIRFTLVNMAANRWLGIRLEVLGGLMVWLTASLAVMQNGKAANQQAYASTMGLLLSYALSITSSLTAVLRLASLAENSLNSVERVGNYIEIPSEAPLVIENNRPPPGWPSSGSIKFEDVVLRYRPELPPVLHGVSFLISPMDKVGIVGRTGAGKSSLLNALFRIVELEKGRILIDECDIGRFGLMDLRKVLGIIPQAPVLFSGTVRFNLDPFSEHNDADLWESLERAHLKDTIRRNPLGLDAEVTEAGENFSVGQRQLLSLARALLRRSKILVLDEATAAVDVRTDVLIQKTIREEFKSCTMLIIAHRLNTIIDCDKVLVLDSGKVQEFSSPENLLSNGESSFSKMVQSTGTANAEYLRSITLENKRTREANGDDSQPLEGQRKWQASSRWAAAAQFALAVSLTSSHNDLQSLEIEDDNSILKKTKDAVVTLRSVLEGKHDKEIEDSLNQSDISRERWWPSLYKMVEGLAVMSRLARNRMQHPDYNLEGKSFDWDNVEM

Compound: O=[N+]([O-])c1ccc(Cl)c([N+](=O)[O-])c1 [DNP]
MgATP-dependent, uncoupler-insensitive uptake of unconjugated precursor detectable (AtMRP2): In no case
MgATP-dependent, uncoupler-insensitive uptake of unconjugated precursor detectable (AtMRP1): In no case

Compound: Triton X-100
release (efflux) of accumulated [3H]DNP-GS after hexokinase trap (AtMRP2): more than 3 fold

MgATP-dependent, uncoupler-insensitive uptake of unconjugated precursor detectable (AtMRP2): In no case
MgATP-dependent, uncoupler-insensitive uptake of unconjugated precursor detectable (AtMRP1): In no case
Compound: OC[C@H]1O[C@@H](Oc2cc3c(O)cc(O)cc3[o+]c2-c2ccc(O)c(O)c2)[C@H](O)[C@@H](O)[C@@H]1O [C3G, cyanidin-3-glucoside]

Compound: Gramicidin D
DNP-GS uptake plus the compound indicated [1, 8]: 5.8 ± 0.1 nmol/mg/10 minutes
DNP-GS uptake as percentage of control plus the compound indicated [1, 9]: 37.7%
[3H]Medicarpin-GS uptake with treatment, +MgATP ([2]; 65 μM medicarpin-GS, 3 mM MgATP, gramicidin-D 5 μM, vanadate 10 μM, DNP-GS 100 μM): 71.2 ± 3.0 nmol/mg/10 minutes
[3H]Medicarpin-GS uptake with treatment, -MgATP ([2]; 65 μM medicarpin-GS, gramicidin-D 5 μM, vanadate 10 μM, DNP-GS 100 μM): 13.2 ± 2.1 nmol/mg/10 minutes
[3H]Medicarpin-GS uptake as percentage of control, +MgATP [2, 10]: 83.2%
[3H]Medicarpin-GS uptake as percentage of control, -MgATP [2, 10]: 79.0%
inhibition of MgATP-dependent [3H]medicarpin-GS uptake ([2]; vanadate 10 μM, DNP-GS 100 μM, gramicidin D): 17%
109Cd.GS2 uptake plus addition [3, 11]: 9.3 ± 2.0 nmol/mg/10 minutes
109Cd.GS2 uptake as percentage of control [3, 12]: 56.6%
DNP-GS uptake plus the compound indicated [4, 8]: 45.8 ± 1.4 nmol/mg/10 minutes
DNP-GS uptake as percentage of control plus the compound indicated [4, 9]: 58.9%
109Cd.GS2 uptake plus addition [5, 11]: 77.8 ± 6.4 nmol/mg/10 minutes
109Cd.GS2 uptake as percentage of control [5, 12]: 73.5%
decrease of MgATP-dependent Cd.GS2 uptake ([5]; text to Table 7): 22%

rate of C3G-GS uptake (AtMRP2; 50 μM): 48.4±2.2 nmol/mg/10 min
rate of C3G-GS uptake (AtMRP1; 50 μM): 7.9±0.7
Km ([6]; read-out: Km for MgATP-dependent, uncoupler-insensitive uptake): 39.5 ± 16.6 µM
Km ([2]; V. radiata, read-out: Km for MgATP-dependent, uncoupler-insensitive uptake): 45.7 ± 14 µM
Compound: cyanin-3-glucoside-GS [C3G-GS]
Vmax for MgATP-dependent, uncoupler-insensitive uptake [6]: 79.1 ± 14.7 nmol/mg/10 min
Vmax for MgATP-dependent, uncoupler-insensitive uptake ([2]; V. radiata): 45.3 ± 6.5 nmol/mg/10 min
Km estimated previously in this system [7]: 46 µM
Vmax of GS-X pump ([7]; comparison value for C3G-GS): 45 nmol/mg/min

Compound: CCc1cccc(C)c1N(C(=O)CCl)C(C)COC (stereo not drawn) [metolachlor]
MgATP-dependent, uncoupler-insensitive uptake of unconjugated precursor detectable (AtMRP2): In no case
MgATP-dependent, uncoupler-insensitive uptake of unconjugated precursor detectable (AtMRP1): In no case

Km (AtMRP2; [13]): 15.2 µM and 15 µM
Vmax for AtMRP2-dependent uptake (AtMRP2; [13]): 63.1 ± 2.5 nmol/mg/10 min
Km for AtMRP1-dependent uptake (AtMRP1; [13]): Linear
Compound: C=CC1=C(C)C(Cc2[nH]c(C3c4[nH]c(Cc5[nH]c(C=O)c(C)c5CCOC(=O)CC(=O)O)c(C)c4C(=O)C3C(=O)O)c(CCC(=O)O)c2C)NC1=O (stereo not drawn) [Bn-NCC-1]

Compound: N[C@@H](CCC(=O)N[C@@H](CS)C(=O)NCC(=O)O)C(=O)O [GSH, glutathione]
MgATP-dependent, uncoupler-insensitive uptake of unconjugated precursor detectable (AtMRP2): In no case
MgATP-dependent, uncoupler-insensitive uptake of unconjugated precursor detectable (AtMRP1): In no case
MgATP-dependent, uncoupler-insensitive DNP-GS uptake plus compound [1]: 4.6 ± 1.1 nmol/mg/10 minutes
MgATP-dependent, uncoupler-insensitive DNP-GS uptake as percentage of control ([1]; dty167 vacuolar membrane vesicles, 10 min): 70.8
MgATP-dependent, uncoupler-insensitive DNP-GS uptake plus compound [4]: 50.6 ± 2.3 nmol/mg/10 minutes
MgATP-dependent, uncoupler-insensitive DNP-GS uptake as percentage of control ([4]; dty165 vacuolar membrane vesicles, 10 min): 105.6
t1/2 of GSH stimulation of Cd2+ uptake [5]: < 5 min
